Literature values as cited in patent US8680270B2, “Metallo-oxidoreductase inhibitors using metal binding moieties in combination with targeting moieties” (Viamet Pharmaceuticals, Inc., priority 2006, dated 2014).
Read-outs that look alike come from different tables or passages of the source.

Key:
[1] = system: androgen-independent, anaplastic AT-6 tumors; details: 120 mg/100 gm food, equivalent to 100 mg/kg per day
[2] = system: androgen-dependent Dunning-H tumor; details: 120 mg/100 gm food, equivalent to 100 mg/kg per day
[3] = system: Plasmodium falciparum
[4] = system: Plasmodium falciparum; remark: listed apart in the source
[5] = system: NOS; parameters: dose or concentration left out as unconfirmed; details: broken cell preparations
[6] = biological target: T1, sGC (Homo sapiens, UniProt Q02153); parameters: dose or concentration left out as unconfirmed; details: broken cell preparations
T1 sequence (Q02153 1-619): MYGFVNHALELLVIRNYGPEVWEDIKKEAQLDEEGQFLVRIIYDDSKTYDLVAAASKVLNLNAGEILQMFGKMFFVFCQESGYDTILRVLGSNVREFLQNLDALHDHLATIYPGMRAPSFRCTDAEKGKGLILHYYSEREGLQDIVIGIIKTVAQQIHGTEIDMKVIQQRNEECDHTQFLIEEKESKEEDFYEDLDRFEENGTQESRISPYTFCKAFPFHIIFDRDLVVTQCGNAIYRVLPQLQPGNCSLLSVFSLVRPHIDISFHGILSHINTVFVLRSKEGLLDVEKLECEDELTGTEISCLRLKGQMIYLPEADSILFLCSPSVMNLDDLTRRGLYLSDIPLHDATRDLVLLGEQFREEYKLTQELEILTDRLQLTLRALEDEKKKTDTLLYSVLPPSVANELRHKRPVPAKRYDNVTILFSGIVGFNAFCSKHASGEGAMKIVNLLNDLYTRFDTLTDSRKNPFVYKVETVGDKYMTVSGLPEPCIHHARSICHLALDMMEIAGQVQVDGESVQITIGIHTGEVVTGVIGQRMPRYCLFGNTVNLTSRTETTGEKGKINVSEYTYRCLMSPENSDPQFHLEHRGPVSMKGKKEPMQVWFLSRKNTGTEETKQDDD
T1 sequence (Q02108 1-690 partner): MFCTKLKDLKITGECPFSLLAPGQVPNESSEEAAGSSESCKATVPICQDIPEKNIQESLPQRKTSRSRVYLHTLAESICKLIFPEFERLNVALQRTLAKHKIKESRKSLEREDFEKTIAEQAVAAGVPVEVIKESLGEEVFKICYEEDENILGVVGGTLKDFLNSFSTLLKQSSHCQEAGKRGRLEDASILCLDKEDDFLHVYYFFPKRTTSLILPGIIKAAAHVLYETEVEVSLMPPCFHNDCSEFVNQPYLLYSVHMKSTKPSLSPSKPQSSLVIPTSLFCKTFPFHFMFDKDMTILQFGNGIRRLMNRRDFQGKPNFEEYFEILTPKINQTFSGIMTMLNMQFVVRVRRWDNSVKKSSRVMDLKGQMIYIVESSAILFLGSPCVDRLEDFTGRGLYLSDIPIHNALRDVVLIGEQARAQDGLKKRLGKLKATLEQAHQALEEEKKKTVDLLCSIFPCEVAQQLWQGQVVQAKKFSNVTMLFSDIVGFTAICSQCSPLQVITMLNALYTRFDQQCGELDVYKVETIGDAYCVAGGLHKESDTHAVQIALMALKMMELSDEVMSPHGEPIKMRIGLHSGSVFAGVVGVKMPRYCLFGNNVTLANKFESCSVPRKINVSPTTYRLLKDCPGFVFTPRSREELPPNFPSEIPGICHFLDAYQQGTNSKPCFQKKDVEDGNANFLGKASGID

[7] = system: HO (heme oxygenase); parameters: dose or concentration left out as unconfirmed; details: broken cell preparations

Compound: Clc1cccc(C(c2ccc3[nH]cnc3c2)n2ccnc2)c1 (stereo not shown) [Liarozole]
- Reduction of tumor growth [1]: −73%
- Median tumor volume decrease [2]: 60%

Compound: O=CN(O)CCCP(=O)(O)O [fosmidomycin]
- Cure rate by day 14 ([3]; 1.2 g every 8 h for 3 days, six of ten): 60%
- Cure rate by day 14 ([3]; 1.2 g every 8 h for 4 days, seven of eight): 88%
- Cure rate by day 14 ([3]; 1.2 g every 8 h for 5 days, eight of nine): 89%
- Tolerability ([3]; all treatment regimens, 1.2 g every 8 h for 5, 4 or 3 days): well tolerated
- Subjects cured on day 28 ([4]; Gabon, seven out of nine subjects): 78%
- Subjects cured on day 28 ([4]; Thailand, two out of nine subjects): 22%
- Clinical and parasitological cure on day 7 (primary end point) ([4]; oral 1,200 mg every 8 h for 7 days): All subjects were clinically and parasitologically cured
- Tolerability ([4]; oral 1,200 mg every 8 h for 7 days, mild gastrointestinal side effects in five subjects): well tolerated

Compound: chromium mesoporphyrin IX [CrMP]
- Effect on NOS [5]: little or no effect
- Effect on sGC [6]: little or no effect
- Inhibition of HO [7]: 90%
